One assay relates to Escherichia coli. As to the kind of experiment: microbe, parasite or virus in culture.
Assay [1] addresses T1, Calpain-2 catalytic subunit (Sus scrofa, UniProt P43367).
T1 sequence (P43367 whole entry): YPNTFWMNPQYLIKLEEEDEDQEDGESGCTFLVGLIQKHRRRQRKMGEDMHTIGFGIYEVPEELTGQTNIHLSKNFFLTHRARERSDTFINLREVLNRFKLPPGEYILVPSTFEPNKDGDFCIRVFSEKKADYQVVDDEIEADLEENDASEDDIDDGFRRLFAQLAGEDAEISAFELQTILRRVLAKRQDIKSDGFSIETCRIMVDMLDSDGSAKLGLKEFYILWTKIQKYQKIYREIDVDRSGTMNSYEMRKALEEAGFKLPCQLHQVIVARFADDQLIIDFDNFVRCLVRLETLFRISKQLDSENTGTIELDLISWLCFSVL
As to the kind of experiment: pig calpain II inhibitor potency, dose response, biochemical, fluorogenic peptide substrate (AID 1420). Type of assay: functional.

Assay [2] deals with Eukaryotic translation initiation factor 4E (Mus musculus, UniProt P63073). Put plainly: eIF4E–eIF4G protein interaction inhibitors, dose response, biochemical, TR-FRET (AID 855).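 Also: potency for disrupting eIF4E binding to eIF4GI seen as loss of FRET.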 Type of assay: functional.
The nature of assay [3]: A cytotoxicity screen of small molecule inhibitors of the PhoP region in Salmonella typhi identified in the primary screen. [Related pubchem assays: 1850, 1864, 1985 ]. Type of assay: functional.
Assay [4] can be described thus: cytotoxicity in HEK-293T cells, dose response, cytotoxicity control for BCR NF-kB inhibitor project, luminescence, B-cell screen hits (AID 489021).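 Also: HEK-293T cells carrying an NF-kB luciferase reporter; cells exposed to compound for about 14 hours before viability readout.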 Type of assay: functional, cell-based.
In the next assay the test system is INS1. Put plainly: beta cell apoptosis inhibitors, cytokine rescue, dose response, luminescence, retest (AID 449756).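 Also: cell death triggered by IL-1 beta plus TNF-alpha plus IFN-gamma mixture; protective hits raise ATP signal compared with cytokine alone wells.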 Type of assay: functional, cell-based. Particulars: Rattus norvegicus.
Assay [5] is described as follows: inhibitors of intracellular T. cruzi replication, confirmation, NIH3T3 host cells, beta-gal luminescence (AID 2044).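 Also: intracellular parasites grown in NIH/3T3 mouse fibroblasts as host cells; luminescent beta-galactosidase reporter signal from transgenic T. cruzi replicating inside host cells; inhibitors lower the luminescence signal.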 Type of assay: functional, cell-based.
Assay [6] in a line: cytotoxicity toward NIH3T3 fibroblasts, dose response, counter-screen, cell-based, ATP luminescence, mouse fibroblasts (AID 2010).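 Also: cells exposed to compound for about 90 hours before reading.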 Type of assay: functional.
Assay [7] addresses Peroxisome proliferator-activated receptor gamma/Nuclear receptor corepressor 2 (Homo sapiens, UniProt P37231+Q9Y618). Type of assay: functional.
Assay [8] deals with Photoreceptor-specific nuclear receptor (Homo sapiens, UniProt Q9Y5X4). Type of assay: functional.
The target of assay [9] is Lysosomal acid glucosylceramidase (Homo sapiens, UniProt P04062). As to the kind of experiment: Dose response cell-based high throughput screening assay to identify enhancers of beta-glucosidase activity. [Related pubchem assays: 784 ]. Type of assay: functional.
In assay [10] the target is T2, G-protein coupled receptor 55 (Homo sapiens, UniProt Q9Y2T6). As to the kind of experiment: GPR55 antagonists blocking LPI-driven arrestin recruitment, primary screen, imaging, U2OS, beta-arrestin-GFP, LPI agonist (AID 2013).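 Also: antagonist potency measured as reduced agonist-driven arrestin aggregation.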 Type of assay: functional.
For assay [11], the target named is T3, Long-chain-fatty-acid--AMP ligase FadD28 (Mycobacterium tuberculosis, UniProt P9WQ59).
T3 sequence (P9WQ59 whole entry): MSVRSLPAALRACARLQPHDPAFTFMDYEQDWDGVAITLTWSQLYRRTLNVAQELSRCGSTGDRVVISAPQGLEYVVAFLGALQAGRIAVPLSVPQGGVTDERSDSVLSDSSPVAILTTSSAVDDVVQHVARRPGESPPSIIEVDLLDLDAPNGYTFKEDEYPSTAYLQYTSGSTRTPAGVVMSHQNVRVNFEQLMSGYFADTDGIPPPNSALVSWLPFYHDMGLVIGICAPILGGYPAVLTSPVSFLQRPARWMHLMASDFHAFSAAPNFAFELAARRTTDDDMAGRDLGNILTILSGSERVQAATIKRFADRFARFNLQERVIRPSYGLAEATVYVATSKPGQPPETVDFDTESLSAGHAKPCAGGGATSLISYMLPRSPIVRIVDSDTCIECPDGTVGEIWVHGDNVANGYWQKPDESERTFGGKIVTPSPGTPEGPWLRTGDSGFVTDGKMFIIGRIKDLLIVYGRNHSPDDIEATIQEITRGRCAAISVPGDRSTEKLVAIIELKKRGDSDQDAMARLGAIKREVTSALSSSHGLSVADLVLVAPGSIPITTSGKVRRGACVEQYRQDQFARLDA
As to the kind of experiment: Fluorescence polarization aasay to screen for inhibitors that compete for the binding of FadD28 to a bisubstrate Measured in Biochemical System Using Plate Reader - 2147-01_Inhibitor_Dose_CherryPick_Activity. Type of assay: functional, Mycobacterium tuberculosis H37Rv.

For assay [12], the target named is T4, SUMO-activating enzyme (Homo sapiens, UniProt Q9UBT2). As to the kind of experiment: inhibitors of in vitro SUMOylation cascade, primary screen, biochemical, HTRF, uHTS (AID 2006). Type of assay: protein-complex assay.
Assay [13] addresses T4, SUMO-activating enzyme. As to the kind of experiment: SUMOylation inhibitor hit validation, confirmation, SUMOylation inhibitor project, biochemical, AlphaScreen (AID 2018). Type of assay: functional.
The test system of a further assay is HEK293. As to the kind of experiment: Fluorescence-based counterscreen for potentiators or agonists of NPY-Y2: cell-based high-throughput dose response assay to identify inhibitors of cyclic nucleotide gated ion channel (CNGC) activity. In this assay, the parental HEK293 cell line transfected with a cyclic-nucleotide gated ion channel (CNGC)-based cAMP sensor is used to measure inhibition of isoproterenol-induced CNGC activity by test compound. Type of assay: functional. Particulars: Homo sapiens.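 Also: stimulus is 1 µM isoproterenol at EC100 plus PDE inhibitor Ro 20-1724 at 25 µM.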

Assay [14] deals with T5, Neuropeptide Y receptor type 1 (Homo sapiens, UniProt P25929).
T5 sequence (P25929 whole entry): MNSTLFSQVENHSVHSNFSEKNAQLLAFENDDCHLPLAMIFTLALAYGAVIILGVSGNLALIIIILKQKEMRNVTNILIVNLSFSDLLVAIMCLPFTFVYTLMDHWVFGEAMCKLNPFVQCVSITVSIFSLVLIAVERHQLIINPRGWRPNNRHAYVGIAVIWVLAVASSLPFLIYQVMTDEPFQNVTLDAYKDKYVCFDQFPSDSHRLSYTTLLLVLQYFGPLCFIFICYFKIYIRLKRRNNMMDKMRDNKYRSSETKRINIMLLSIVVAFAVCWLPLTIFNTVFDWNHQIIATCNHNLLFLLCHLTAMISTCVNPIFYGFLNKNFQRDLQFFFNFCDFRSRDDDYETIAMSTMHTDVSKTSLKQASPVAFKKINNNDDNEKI
Put plainly: Fluorescence-based counterscreen for agonists of NPY-Y2: cell-based high-throughput dose response assay for agonists of NPY-Y1. Type of assay: functional.

In assay [15] the target is T6, Neuropeptide Y receptor type 2 (Homo sapiens, UniProt P49146).
T6 sequence (P49146 whole entry): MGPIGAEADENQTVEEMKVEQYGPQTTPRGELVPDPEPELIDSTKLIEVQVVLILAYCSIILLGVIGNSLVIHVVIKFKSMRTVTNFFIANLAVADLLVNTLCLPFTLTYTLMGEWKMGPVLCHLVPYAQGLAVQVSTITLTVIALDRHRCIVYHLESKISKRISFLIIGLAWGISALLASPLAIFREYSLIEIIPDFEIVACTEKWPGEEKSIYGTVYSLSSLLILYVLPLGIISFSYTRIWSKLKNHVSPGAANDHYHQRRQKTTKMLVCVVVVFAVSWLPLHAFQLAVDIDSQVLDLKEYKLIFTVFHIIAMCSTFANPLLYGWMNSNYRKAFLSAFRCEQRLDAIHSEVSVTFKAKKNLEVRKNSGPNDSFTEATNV
Put plainly: Fluorescence-based cell-based high-throughput dose response assay for agonists of NPY-Y2. [Related pubchem assays: 1703 (Screening assay (CNGC inhibitors).), 1359 (Screening assay (NPY-Y2 potentiators or agonists).), 1304 (Screening assay (NPY-Y1 potentiators or agonists).), 1710 (Screening assay (NPY-Y2 agonists).), 1791 (Summary AID.)]. Type of assay: functional.

The target in assay [16] is Acyl-homoserine lactone acylase PvdQ (Pseudomonas aeruginosa (strain LESB58), UniProt Q9I194). Put plainly: P. aeruginosa PvdQ acylase inhibitors, dose response, biochemical, fluorescence, plate reader and imaging, cherry-picks (AID 493231).
Assay [17] addresses T2, G-protein coupled receptor 55. Put plainly: GPR55 agonists via beta-arrestin recruitment, primary screen, imaging, U2OS cells, beta-arrestin-GFP redistribution (AID 1961). Type of assay: functional.

Activity calls are given as the source filed them.

T2 sequence (Q9Y2T6 whole entry): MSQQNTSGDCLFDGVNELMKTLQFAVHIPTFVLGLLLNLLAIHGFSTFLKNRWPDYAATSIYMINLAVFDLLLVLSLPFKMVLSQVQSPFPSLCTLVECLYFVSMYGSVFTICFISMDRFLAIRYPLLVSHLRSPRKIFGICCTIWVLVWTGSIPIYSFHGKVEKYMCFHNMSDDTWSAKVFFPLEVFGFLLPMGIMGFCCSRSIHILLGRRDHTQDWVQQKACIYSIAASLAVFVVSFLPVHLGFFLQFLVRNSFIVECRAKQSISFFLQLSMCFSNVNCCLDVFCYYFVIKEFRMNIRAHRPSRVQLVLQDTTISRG
T4 sequence (Q9UBE0 whole entry): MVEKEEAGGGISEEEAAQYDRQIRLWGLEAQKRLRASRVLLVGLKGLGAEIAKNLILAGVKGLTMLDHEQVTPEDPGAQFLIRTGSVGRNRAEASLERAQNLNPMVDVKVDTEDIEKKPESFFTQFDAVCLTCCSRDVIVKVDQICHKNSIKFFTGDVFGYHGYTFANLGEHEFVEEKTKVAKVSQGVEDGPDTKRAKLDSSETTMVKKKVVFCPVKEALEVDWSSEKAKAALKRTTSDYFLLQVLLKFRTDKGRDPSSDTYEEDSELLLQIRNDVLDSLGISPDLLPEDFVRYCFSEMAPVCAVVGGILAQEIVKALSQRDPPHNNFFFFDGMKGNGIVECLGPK
T4 sequence (Q9UBT2 whole entry): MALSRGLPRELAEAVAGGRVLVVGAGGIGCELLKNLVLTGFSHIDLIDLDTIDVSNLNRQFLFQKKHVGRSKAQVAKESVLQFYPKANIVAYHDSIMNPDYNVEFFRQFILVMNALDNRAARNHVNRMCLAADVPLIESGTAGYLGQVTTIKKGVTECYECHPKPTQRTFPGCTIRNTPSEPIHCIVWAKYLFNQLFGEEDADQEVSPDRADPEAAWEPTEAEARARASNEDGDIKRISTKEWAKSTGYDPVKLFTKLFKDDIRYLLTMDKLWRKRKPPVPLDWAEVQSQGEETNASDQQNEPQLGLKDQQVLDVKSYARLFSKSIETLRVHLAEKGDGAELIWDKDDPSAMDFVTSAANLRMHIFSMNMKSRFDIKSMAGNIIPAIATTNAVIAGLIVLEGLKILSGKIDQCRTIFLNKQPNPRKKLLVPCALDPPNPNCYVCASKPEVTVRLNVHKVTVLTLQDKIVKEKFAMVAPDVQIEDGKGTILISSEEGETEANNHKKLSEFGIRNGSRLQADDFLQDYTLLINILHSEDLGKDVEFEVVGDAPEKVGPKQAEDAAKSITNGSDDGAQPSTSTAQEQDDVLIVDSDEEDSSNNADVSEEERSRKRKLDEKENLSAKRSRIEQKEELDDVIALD
Sequence of Lysosomal acid glucosylceramidase (P04062 whole entry): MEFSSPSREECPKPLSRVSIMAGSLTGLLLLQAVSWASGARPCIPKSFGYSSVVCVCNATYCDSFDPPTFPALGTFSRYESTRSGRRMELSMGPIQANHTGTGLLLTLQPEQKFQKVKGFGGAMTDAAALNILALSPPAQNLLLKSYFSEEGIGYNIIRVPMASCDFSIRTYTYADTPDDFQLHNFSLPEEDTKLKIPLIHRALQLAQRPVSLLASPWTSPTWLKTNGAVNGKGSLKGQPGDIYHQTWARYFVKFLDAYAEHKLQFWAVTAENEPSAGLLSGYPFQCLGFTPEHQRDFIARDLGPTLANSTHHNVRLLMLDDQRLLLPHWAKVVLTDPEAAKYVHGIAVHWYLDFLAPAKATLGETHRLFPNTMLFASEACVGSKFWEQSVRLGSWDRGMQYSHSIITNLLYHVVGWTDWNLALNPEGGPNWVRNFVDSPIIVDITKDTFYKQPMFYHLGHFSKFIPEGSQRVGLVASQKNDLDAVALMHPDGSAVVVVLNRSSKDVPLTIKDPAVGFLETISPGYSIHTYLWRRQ
Sequence of Photoreceptor-specific nuclear receptor (Q9Y5X4 whole entry): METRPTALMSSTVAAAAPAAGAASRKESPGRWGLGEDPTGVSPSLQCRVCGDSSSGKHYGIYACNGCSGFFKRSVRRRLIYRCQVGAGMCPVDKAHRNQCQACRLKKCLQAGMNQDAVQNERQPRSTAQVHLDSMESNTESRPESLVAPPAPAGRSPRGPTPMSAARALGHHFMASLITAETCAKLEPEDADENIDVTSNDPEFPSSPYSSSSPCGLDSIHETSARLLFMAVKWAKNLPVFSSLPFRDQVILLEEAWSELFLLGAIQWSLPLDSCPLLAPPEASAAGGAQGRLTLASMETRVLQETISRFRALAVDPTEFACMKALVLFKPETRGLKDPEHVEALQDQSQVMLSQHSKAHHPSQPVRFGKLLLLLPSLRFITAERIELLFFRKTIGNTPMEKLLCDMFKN
Sequence of Eukaryotic translation initiation factor 4E (P63073 whole entry): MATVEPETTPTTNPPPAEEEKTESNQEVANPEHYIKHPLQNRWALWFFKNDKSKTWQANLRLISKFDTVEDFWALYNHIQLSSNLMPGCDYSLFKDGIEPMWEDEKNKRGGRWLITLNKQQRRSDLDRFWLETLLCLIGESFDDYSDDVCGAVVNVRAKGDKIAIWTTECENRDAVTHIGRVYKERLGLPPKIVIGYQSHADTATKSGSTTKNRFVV
Sequence of Acyl-homoserine lactone acylase PvdQ (Q9I194 24-193 limits assumed): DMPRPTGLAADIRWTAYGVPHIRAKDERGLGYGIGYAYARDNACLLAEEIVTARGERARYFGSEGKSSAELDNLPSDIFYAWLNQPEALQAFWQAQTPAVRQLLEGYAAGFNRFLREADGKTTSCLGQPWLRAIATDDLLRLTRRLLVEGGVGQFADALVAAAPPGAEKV
Sequence of Acyl-homoserine lactone acylase PvdQ (Q9I194 217-762 limits assumed): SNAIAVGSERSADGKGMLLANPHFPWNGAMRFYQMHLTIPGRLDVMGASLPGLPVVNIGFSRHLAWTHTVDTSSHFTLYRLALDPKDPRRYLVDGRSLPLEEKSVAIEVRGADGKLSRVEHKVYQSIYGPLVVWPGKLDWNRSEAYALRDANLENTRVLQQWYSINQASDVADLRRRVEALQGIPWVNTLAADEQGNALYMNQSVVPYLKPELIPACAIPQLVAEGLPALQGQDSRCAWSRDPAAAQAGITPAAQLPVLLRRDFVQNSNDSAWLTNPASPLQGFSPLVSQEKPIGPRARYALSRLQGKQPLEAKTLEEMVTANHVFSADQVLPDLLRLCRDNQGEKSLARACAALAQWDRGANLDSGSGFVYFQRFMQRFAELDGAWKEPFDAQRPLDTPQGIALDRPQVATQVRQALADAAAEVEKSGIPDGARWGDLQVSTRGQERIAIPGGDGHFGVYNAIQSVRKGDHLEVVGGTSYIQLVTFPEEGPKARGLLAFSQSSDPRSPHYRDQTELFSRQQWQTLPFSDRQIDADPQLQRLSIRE

Regarding `O=C(Nc1cccc(-c2nc3cccnc3s2)c1)C1c2ccccc2Oc2ccccc21`, the AC50 with Escherichia coli was 50.5 µM (active). The figures for the IC50 in assay [1] and in [2] were 7.46 µM (active) and > 64 µM (inactive), respectively. `COc1nccnc1NS(=O)(=O)c1ccc(NC(=S)NC(=O)c2cccnc2)cc1`: the EC50 in assay [3] is > 50 µM (active). With `CC(=O)C1=NN(c2ccccc2)C(c2cccs2)N1c1ccc(N(C)C)cc1` (configuration not stated), the IC50 in [4] was > 80 µM (inactive). Further, the AC50 with INS1 was 3.1 µM (active). Further, the EC50 in [5] is 0.776 µM (active); in assay [6] it was > 60 µM (inconclusive). For the compound `Cc1ccc(C(=O)C2=C(O)C(=O)N(Cc3cccnc3)C2c2ccc(Br)cc2)o1` (configuration not stated), the IC50 in assay [7] is 9.36 µM (active); in [8] it was > 39.8 µM (not active). `Cc1ccc(C(C(=O)NC2CCCCC2)N2CCCC2)cc1` (configuration not stated): in assay [9], the concentration giving a half-maximal response (EC50) is on record as > 50 µM (not active). Turning to `C#CCN(CC=C)C(=O)c1ccc2nc(C3CCCCC3)oc2c1`, the IC50 in [10] is 4.55 µM (active).

Consider `O=C(C1=C(O)C(=O)N(CCN2CCOCC2)C1c1ccc(Cl)cc1)c1cc2ccccc2o1` (configuration not stated), for which the IC50 in assay [7] was 9.92 µM (active); in [8], > 39.8 µM (not active). For `Cc1ccc(NC(=O)CN2C(=O)S/C(=C\c3ccc(-c4cccc(C(=O)O)c4C)o3)C2=O)cc1C`, the AC50 in assay [11] is 52.8 µM (active). For the same compound, the values for the IC50 (at SUMO-activating enzyme [12]; in assay [2]; at SUMO-activating enzyme [13]) were 6.48 µM (active), 27.9 µM (active) and 6.11 µM (active), respectively. For `N#Cc1c(Cl)nsc1NN`, the EC50 in the assay with HEK293 was 9.97 µM (active); in [14] it was 7.05 µM (active); in assay [15], 9.25 µM (active). Consider `CCOC(=O)/C(C#N)=C/c1ccc(SC)cc1`, for which the AC50 in assay [16] is 18.1 µM (active). `O=C(C1CCC1)N1CCN(c2ccc(Cl)cc2)CC1`: the AC50 in [16] is 13.5 µM (active). Consider `Cc1cc(C)c2nc(NC(=O)C3CSC4(C)CCC(=O)N34)sc2c1` (configuration not stated), for which the IC50 in assay [4] is > 80 µM (inactive). On to `Cc1cc(C)c(/C=N/NC(=O)c2nnn(-c3nonc3N)c2CN2CCC(C)CC2)c(C)c1`, for which, in [17], the EC50 was 8.18 µM (active). As to `O=C(N/N=C/c1cccs1)c1ccc2[nH]cnc2c1`, the EC50 in assay [3] was > 50 µM (active). Regarding `CCOc1ccc(-c2noc(-c3ccncc3)n2)cc1OCC`, in assay [9], the EC50 is given as > 10 µM (not active).

These data come from ChEMBL document CHEMBL1201862, “PubChem BioAssay data set” (2004).
